How the values were obtained:
[1] = system: MITF; test: MITF mRNA expression in NHMs; type: cell-based, human
[2] = system: normal human melanocytes (NHMs); test: Cell growth rate in normal human melanocytes treated with carvedilol; type: cell-based; settings: cultured for 5 days (FIG. 1A)
Description: (§1) NHMs were treated with carvedilol at each concentration of 2 μM, 4 μM, 6 μM, 8 μM and 10 μM, cultured for 5 days, and then a cell growth rate, melanogenesis activity, tyrosinase activity, and the expression of a melanin synthesis-related protein were confirmed.

[3] = system: normal human melanocytes (NHMs); test: Melanin production (melanogenesis activity) in NHMs; type: cell-based; settings: carvedilol 2-10 μM, 5 days (FIG. 1B)
Description: as §1

[4] = system: tyrosinase; test: Tyrosinase activity in NHMs; type: cell-based, human; settings: carvedilol 2-10 μM, 5 days (FIG. 1C)
Description: as §1

[5] = system: melanin synthesis-related protein; test: Expression of melanin synthesis-related protein in NHMs; type: cell-based, human; settings: according to carvedilol treatment time (FIG. 1D)
Text: […], and then a cell growth rate, melanogenesis activity, tyrosinase activity, and the expression of a melanin synthesis-related protein were confirmed.

[6] = system: mouse melanocytes (mel-ab); test: Cell growth rate in mouse melanocytes (mel-ab); type: cell-based; settings: up to 8 μM carvedilol (FIG. 2A)
Text: (§2) In addition to the result of Example 1 showing whitening activity in NHMs, the melanin inhibitory effect was confirmed by treating mouse melanocytes (mel-ab) with carvedilol.

[7] = system: mouse melanocytes (mel-ab); test: Melanin production in mouse melanocytes (mel-ab); type: cell-based; settings: carvedilol by concentration (FIG. 2B)
Text: as §2

[8] = system: cAMP/PKA/CREB signaling pathway; test: Phospho-CREB and phospho-ERK expression in FSK-stimulated NHMs; type: cell-based, human; settings: over time (FIG. 1D)
Description: After NHMs were stimulated with FSK and treated with carvedilol, the expression levels of phospho-CREB and phospho-ERK were measured, and an intracellular signaling pathway which regulates MITF transcription was investigated.

[9] = system: FSK-stimulated NHMs; test: Melanin production in FSK-stimulated NHMs; type: cell-based, human; settings: NHMs after FSK treatment (FIG. 3A)
[10] = system: ex-vivo model of human skin tissue; test: Ex-vivo human skin tissue model stimulated by UV irradiation
Text: To examine adaptation in actual clinical practice, an ex-vivo model of human skin tissue was stimulated by UV irradiation to induce melanin synthesis, and treated with carvedilol and cultured, and then a fragment was formed and subjected to Fontana-Masson staining.

| Structure (SMILES) | MITF transcription ([1]; 10 μM FSK for 2 hours (FIG. 3B)) | cell growth rate ([2]; 10 μM carvedilol) | cell growth rate ([2]; up to 8 μM carvedilol) | melanin production [3] | tyrosinase activity [4] | expression of a melanin synthesis-related protein [5] | cell growth rate [6] | melanin production [7] | phospho-CREB expression [8] | phospho-ERK expression [8] | melanin production [9] | mRNA level of MITF ([1]; two hours after carvedilol treatment (FIG. 3C)) | melanosome level (Fontana-Masson staining) ([10]; UV-irradiated ex-vivo human skin, carvedilol treated (FIG. 4A)) | melanin index (proportion of Fontana-Masson-stained region) ([10]; UV-irradiated ex-vivo human skin, carvedilol treated (FIG. 4B)) | melanin synthesis-related enzymes such as tyrosinase, TRP1 and DCT ([10]; UV-irradiated ex-vivo human skin, increased by UVR (FIG. 4C)) | number of Melan-A (+) cells (melanocytes) ([10]; ex-vivo human skin, compared to UVR alone (FIG. 4D)) | HMB45(+) melanocytes indicating melanocyte activity ([10]; ex-vivo human skin, increased by UVR treatment (FIG. 4E)) |
| --- | --- | --- | --- | --- | --- | --- | --- | --- | --- | --- | --- | --- | --- | --- | --- | --- | --- |
| C=C[C@@]1(C)CC(=O)[C@]2(O)[C@@]3(C)[C@@H](O)CCC(C)(C)[C@@H]3[C@H](O)[C@H](OC(C)=O)[C@@]2(C)O1 [FSK] | maximally increased |  |  |  |  |  |  |  |  |  |  |  |  |  |  |  |  |
| COc1ccccc1OCCNCC(O)COc1cccc2[nH]c3ccccc3c12 (centres unmarked) [carvedilol] |  | slightly reduced | no effect | inhibited | inhibited | tends to decrease over time | no effect | effect of inhibiting melanin production | reduced over time | no change | inhibits melanin production | maximally decreased | melanosome reduction | decrease | reduced | does not affect | reduced |
